From PubChem BioAssay (NCI)
Several values for one entry are separate records, joined by “and”; a condition that tells them apart may be missing. Equal entries are not always repeated.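 The compound was tested at five concentrations on cells cultured in 96-well plates, with a 48-hour exposure period. GI50 marks 50% less growth. The concentration for full growth arrest is given as TGI.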

Tests used:
Test in all cases: inhibition of tumour cell growth, NCI panel, 48 h
A549 NSCLC = test system: A549 NSCLC
ACHN renal = test system: ACHN renal
CAKI-1 renal = test system: CAKI-1 renal
MALME-3M melanoma = test system: MALME-3M melanoma
MCF7 breast = test system: MCF7 breast
OVCAR-3 ovarian = test system: OVCAR-3 ovarian
RXF 393 renal = test system: RXF 393 renal
SF-539 CNS = test system: SF-539 CNS
SK-MEL-28 melanoma = test system: SK-MEL-28 melanoma
U251 CNS = test system: U251 CNS

Row | Structure (SMILES) | GI50 (A549 NSCLC) | TGI (A549 NSCLC) | GI50 (ACHN renal) [µM] | TGI (ACHN renal) [µM] | GI50 (CAKI-1 renal) | TGI (CAKI-1 renal) | GI50 (MALME-3M melanoma) [µM] | TGI (MALME-3M melanoma) | GI50 (MCF7 breast) | TGI (MCF7 breast) [µM] | GI50 (OVCAR-3 ovarian) [µM] | TGI (OVCAR-3 ovarian) | GI50 (RXF 393 renal) [µM] | TGI (RXF 393 renal) | GI50 (SF-539 CNS) [µM] | TGI (SF-539 CNS) | GI50 (SK-MEL-28 melanoma) [µM] | TGI (SK-MEL-28 melanoma) [µM] | GI50 (U251 CNS) [µM] | TGI (U251 CNS)
1 | O=C(NO)C(O)C(O)C(O)C(O)CO (centres undefined) | > 100 µM and 54.1 µM | > 100 µM | > 100 | > 100 | 31.3 µM | > 100 µM | > 100 | > 100 µM | > 100 µM and 46.4 µM | > 100 | > 100 | > 100 µM | > 100 | > 100 µM | > 100 | > 100 µM | > 100 | > 100 | > 100 | > 100 µM
2 | CN1CCN(C(=S)SCN2C(=O)c3ccccc3S2(=O)=O)CC1 | 28.3 µM | > 100 µM | 41.3 | > 100 | 51.9 µM | > 100 µM | 23.1 | 95.8 µM | 8.29 µM | > 100 | 21.9 | 63.2 µM | 39.5 | > 100 µM | 36.8 | > 100 µM | 14.4 | 37.5 | 26.5 | > 100 µM
3 | O=[N+]([O-])c1cccc(-c2ncc(-c3ccc(Cl)cc3Cl)[nH]2)c1 | 22 µM | > 56.9 µM | 7.48 | 18.3 | 1.82 µM | 4.71 µM | 3.69 | 8.84 µM | 1.14 µM | 3.57 | 2.44 | 5.93 µM | 2.25 | 6 µM | 15.4 | 29.3 µM | 1.79 | 3.72 | 2.67 | 6.96 µM
4 | CC1SC2(CCCCC2)N(NC(=O)c2[nH]c3ccc(F)cc3c2-c2ccccc2)C1=O (centres undefined) | 72.3 µM | > 100 µM | > 100 | > 100 | > 100 µM | > 100 µM | 26.1 | > 100 µM | > 100 µM | > 100 | 25.2 | > 100 µM | 28.3 | > 100 µM | > 100 | > 100 µM | > 100 | > 100 | 48.5 | > 100 µM
5 | CN1CC(C(=O)NC2(C)OC3(O)C4CCCN4C(=O)C(Cc4ccccc4)N3C2=O)C=C2c3cccc4[nH]cc(c34)CC21 (centres undefined) | – | > 100 µM | – | 55.1 | – | 92 µM | – | 38.6 µM | – | > 100 | – | 43.3 µM | – | 40.5 µM | – | 39 µM | – | 35.2 | – | 38.2 µM
6 | CCSc1nc(N)c2cnn(C)c2n1 | 52.6 µM | > 100 µM | 44.4 | > 100 | 25.9 µM | > 100 µM | 33.6 | > 100 µM | 28 µM | > 100 | 30.6 | > 100 µM | 36.2 | > 100 µM | 36.1 | > 100 µM | 62.3 | > 100 | 40.6 | > 100 µM
7 | COc1cc(C2c3cc4c(cc3[C@@H](Nc3cccc(O)c3)C3COC(=O)[C@H]23)OCO4)cc(OC)c1O (some centres undefined) | 0.579 µM | 7.03 µM | 0.356 | 3.56 | 0.242 µM and 0.69 µM | 4.59 µM | – | 11.2 µM | – | 28.4 | – | 12.6 µM | 0.418 | 9.23 µM | 0.482 | 4.53 µM | 0.746 | 20.7 | 0.732 | 9.22 µM
8 | CCc1nc(N)nc(N)c1-c1ccc([N+](=O)[O-])c(Cl)c1 | – | > 80.8 µM | – | > 100 | – | > 100 µM | – | > 100 µM | – | > 100 | – | > 100 µM | – | > 100 µM | – | > 94.4 µM | – | > 100 | – | > 100 µM
9 | Cn1c(COC(=O)NCCN2CCOCC2)nc2c(N3CCOCC3)nc(-c3ccccc3)nc21 | 1.39 µM | 3.73 µM | 0.936 | 2.23 | 0.449 µM | 1.72 µM | 1.56 | 3.02 µM | 0.47 µM | 2.18 | 0.343 | 1.53 µM | 0.797 | 2.22 µM | 1.35 | 2.68 µM | 1.51 | 2.94 | 1.37 | 2.9 µM
10 | CN1C(=O)C23CC4=CC=CC(O)C4N2C(=O)C1(CO)SS3 (centres undefined) | – | 0.318 µM | – | 0.334 | – | 0.759 µM | – | 0.449 µM | – | 0.371 | – | 0.33 µM | – | 0.38 µM | – | 0.17 µM | – | 2.26 | – | 0.448 µM
11 | CC[C@@]1(OC(=O)CN(C)C)C(=O)OCc2c1cc1n(c2=O)Cc2cc3ccccc3nc2-1 | 0.042 µM | 4.33 µM and 7.12 µM | – | 0.273 | – | 2.4 µM and 0.806 µM | 0.293 | 4.96 µM and 4.89 µM | 0.0235 µM | > 100 | 0.356 | 2.15 µM and 1.73 µM | 0.0665 | 0.643 µM and 0.43 µM | < 0.0167 | 0.0572 µM and 0.315 µM | 1.01 | – | < 0.0175 | 0.958 µM and 0.425 µM
12 | CC1(C)CC2(C)OC2C2(C1)N=NC(=Nc1ccccc1)O2 (centres undefined) | 11 µM | 39.5 µM | 2 | 6.12 | 2.68 µM | 12.5 µM | 3.07 | 12.1 µM | 1.81 µM | 13.2 | 2.23 | 4.81 µM | 2.19 | 6.26 µM | 7.94 | 20.9 µM | 11.9 | 27.4 | 13 | 26 µM
13 | C#Cc1ccc(-n2c(/C=C/c3cc(OC)c(OC)c(OC)c3)nc3ncccc3c2=O)cc1 | 5.65 µM | > 100 µM | 6.63 | > 100 | 6.07 µM | > 100 µM | 9.74 | 70.5 µM | 3.17 µM | > 100 | 2.33 | 6.42 µM | 7.04 | > 100 µM | 4.57 | 37.7 µM | 34.6 | > 100 | 9.93 | > 100 µM
14 | CCOC(=O)C1=C(c2ccccc2)N(Cc2ccccc2)C2(O)C=CC(=O)C3C(=O)N(c4ccccc4)C(=O)C132 (centres undefined) | 2.96 µM | 11.4 µM | 1.9 | 4.23 | 3.08 µM | 9.71 µM | 1.79 | 3.34 µM | 1.29 µM | 3.08 | 2.11 | 4.33 µM | 1.91 | 3.75 µM | 1.91 | 3.76 µM | 1.73 | 3.85 | 1.51 | 2.93 µM
15 | Cc1nc(C(N)=S)sc1C(=O)CC(=O)C(=O)Nc1cccc(Cl)c1C | – | > 100 µM | – | > 100 | – | > 100 µM | – | > 100 µM | – | > 100 | – | > 100 µM | – | > 100 µM | – | > 100 µM | – | > 100 | – | > 100 µM
16 | CCCCCCCCCCCCCCCC(=O)OCC1OC(n2ccc(N)nc2=O)C(O)C1O (centres undefined) | – | > 100 µM | – | > 44.2 | – | > 100 µM | – | > 54.6 µM | – | > 100 | – | > 97 µM | – | > 100 µM | – | > 100 µM | – | > 100 | – | > 100 µM
17 | CCCCCCCCCCCCNC(=O)[C@H]1CSC(c2ccc(OC)c(F)c2)N1 (some centres undefined) | 1.89 µM | 3.69 µM | 1.63 | 3 | 1.56 µM | 2.94 µM | 1.78 | 3.24 µM | 1.55 µM | 3.31 | 1.45 | 3.26 µM | 0.867 | 2.2 µM | 0.785 | 2.14 µM | 0.342 | 1.11 | 1.89 | 3.66 µM
18 | C[C@H](NC(=O)CCC(F)(F)F)C(=O)N[C@@H]1C(=O)N(CCO)c2ncccc2-c2ccccc21 | > 100 µM | > 100 µM | > 100 | > 100 | > 100 µM | > 100 µM | > 100 | > 100 µM | > 100 µM | > 100 | > 100 | > 100 µM | > 100 | > 100 µM | > 100 | > 100 µM | > 100 | > 100 | > 100 | > 100 µM
19 | COc1cc(C(=O)N/N=C/c2cccc([N+](=O)[O-])c2)cc(OC)c1OC | 8.02 µM | > 100 µM | 26.7 | > 100 | 2.53 µM | 11.9 µM | 2.75 | 9.86 µM | 4.49 µM | > 100 | 2.39 | 6.64 µM | 6.9 | 34.3 µM | 3.28 | 16.9 µM | 39.3 | > 100 | 4.47 | 26.1 µM
20 | C[C@]12CC[C@@H]3c4ccc(O)cc4CC[C@H]3[C@@H]1CC[C@@H]2NS(=O)(=O)c1ccc(-c2ccccc2)cc1 | 3.26 µM | > 100 µM | 2.98 | 20.1 | 3.57 µM | > 100 µM | 3.01 | 12.6 µM | 3.56 µM | 11.2 | 3.32 | 12.7 µM | 2.58 | 8.08 µM | 3.91 | 15.7 µM | 5.52 | 54.6 | 4 | 32.6 µM
